Source: US20160251403A1, “PEPTIDE COMBINATIONS AND USES THEREOF IN TREATING DUST MITE ALLERGY” (ALK-ABELLO A/S, priority 2013, published 2016)
Numbering of substitutions follows the chain as printed. No end group written: not given here.

Key:
DRB1_1501 = DRB1_1501 (Homo sapiens, UniProt P01903+P01911); assay: Competitive MHC class II binding assay, DRB1_1501
DRB1_0101 = DRB1_0101 (Homo sapiens, UniProt P01903+P01911, A100R/D57E/F55L/F60I/F76Y/I96L/L162R/M171V/P40L/Q125E/R42F/V115G/Y59C); assay: Competitive MHC class II binding assay, DRB1_0101;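 also: competition against a radiolabeled probe peptide (0.1–1 nM) for purified HLA class II protein over 2–4 days, bound counts read after antibody capture, six competitor levels across 100,000-fold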
DPA10103-DPB10402 = biological target: T1, DPA10103-DPB10402 (Homo sapiens, UniProt P04440+P20036, A65V/A84D/A85E/L207M); assay: Competitive MHC class II binding assay, DPA10103-DPB10402
T1 sequence (P20036 29-260): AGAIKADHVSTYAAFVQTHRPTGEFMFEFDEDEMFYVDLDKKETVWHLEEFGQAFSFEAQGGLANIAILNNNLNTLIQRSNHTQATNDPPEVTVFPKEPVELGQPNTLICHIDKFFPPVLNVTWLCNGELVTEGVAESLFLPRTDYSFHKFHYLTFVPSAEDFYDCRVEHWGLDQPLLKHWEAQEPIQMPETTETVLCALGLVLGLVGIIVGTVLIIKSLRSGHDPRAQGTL
T1 sequence (P04440 30-258 A65V/A84D/A85E): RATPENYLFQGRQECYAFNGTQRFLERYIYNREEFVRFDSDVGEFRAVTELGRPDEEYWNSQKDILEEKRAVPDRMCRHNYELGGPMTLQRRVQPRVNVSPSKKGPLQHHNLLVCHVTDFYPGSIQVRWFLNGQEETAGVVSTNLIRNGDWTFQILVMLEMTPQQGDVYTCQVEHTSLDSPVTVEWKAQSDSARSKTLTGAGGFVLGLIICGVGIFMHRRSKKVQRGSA

DRB3_0202 = DRB3_0202 (Homo sapiens, UniProt P01903+P79483, A212P/D57E/F66Y/L67A/R103Q/R218S/R40L/S89Y/T80R/V86D/Y55F/Y59H); assay: Competitive MHC class II binding assay, DRB3_0202
DRB1_1302 = DRB1_1302 (Homo sapiens, UniProt P01903+P01911, A100E/A169T/K41T/L162R/M171V/P40S/Q125H/Q178H/Q39Y/Q99D/R42S/S66N/T262R/V115G/W38E/Y61H); assay: Competitive MHC class II binding assay, DRB1_1302;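 also: purified HLA class II protein incubated two to four days with a radiolabeled reference binder and test peptide at six concentrations over a 100,000-fold range, complex-bound radioactivity counted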
DRB1_0701 = DRB1_0701 (Homo sapiens, UniProt P01903+P01911, A100R/A102G/A103Q/D57E/D86V/E43K/F76Y/K127E/L162R/M171V/P40G/Q125H/Q99D/R33Q/R42Y/R54Q/S133A/S66F/T210M/V115G/Y107V/Y59L/Y89S); assay: Competitive MHC class II binding assay, DRB1_0701;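 also: displacement of a radiolabeled reference peptide from purified HLA class II protein, with complex-bound radioactivity counted after 2–4 days of incubation and six concentrations spanning a 100,000-fold range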
DQA10102-DQB10602 = assay: Competitive MHC class II binding assay, DQA10102-DQB10602; conditions: read-out: HLA-DQA10102-DQB10602; positive binding at cutoff 1000 nM
DPA10202-DPB10501 = biological target: T2, DPA10202-DPB10501 (Homo sapiens, UniProt P04440+P20036, A42M/A65V/A84E/F191V/F64L/G113D/G114E/K142R/L158P/M116V/M62Q/P115A/Q81R/R125K/T114A/T199I/T259P/V234M); assay: Competitive MHC class II binding assay, DPA10202-DPB10501; conditions: positive binding at cutoff 1000 nM; read-out: HLA-DPA10202-DPB10501
T2 sequence (P04440 30-258 A65V/A84E/F64L/G113D/G114E/M116V/P115A/R125K/T199I/V234M): T1 sequence (P04440 30-258 A65V/A84D/A85E) with F35L, D55E, E56A, G84D, G85E, P86A, M87V, R96K, T170I, V205M
T2 sequence (P20036 29-260 A42M/F191V/K142R/L158P/M62Q/Q81R/T114A/T259P): T1 sequence (P20036 29-260) with A14M, M34Q, Q53R, T86A, K114R, L130P, F163V, T231P

DRB1_0401 = DRB1_0401 (Homo sapiens, UniProt P01903+P01911, A100K/A169T/F76Y/I96L/K127E/L162R/M171V/N62H/P40V/Q125Y/R42H/S133A/S149N/S66Y/V115G/V209L/W38E); assay: Competitive MHC class II binding assay, DRB1_0401
DQA10501-DQB10301 = DQA10501-DQB10301 (Homo sapiens, UniProt P01909+P01920); assay: Competitive MHC class II binding assay, DQA10501-DQB10301
DRB5_0101 = DRB5_0101 (Homo sapiens, UniProt P01903+Q30154); assay: Competitive MHC class II binding assay, DRB5_0101
DRB1_0802 = DRB1_0802 (Homo sapiens, UniProt P01903+P01911, A100R/A103L/A169T/F76Y/H45Y/I96F/K41T/L162R/M171V/P40S/Q125H/Q178H/Q39Y/Q99D/R218S/R42G/S66Y/V115G/W38E); assay: Competitive MHC class II binding assay, DRB1_0802
DRB1_0901 = DRB1_0901 (Homo sapiens, UniProt P01903+P01911, A100R/A103E/D57H/D86V/F55Y/F60I/F76Y/I96F/K127E/L162R/M171V/P40D/Q125H/Q99R/R33Q/R42F/S133A/S66N/T210M/V115G/W38K/Y107V/Y59G/Y89S); assay: Competitive MHC class II binding assay, DRB1_0901;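 also: displacement of a radiolabeled probe peptide from purified HLA class II protein, bound counts read after two to four days incubation, six concentrations spanning 100,000-fold, unlabeled probe as reference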
DRB4_0101 = DRB4_0101 (Homo sapiens, UniProt P01903+P13762, G164S); assay: Competitive MHC class II binding assay, DRB4_0101
DQA10301-DQB10302 = DQA10301-DQB10302 (Homo sapiens, UniProt P01909+P01920, A209T/A45G/C70Q/D89A/DUP78-78/E183D/E77G/F237L/G63E/H199R/I129T/K197E/L178F/L74F/L98V/Q57E/Q76R/S185I/S97I/T217I/T49S/V73L/Y58L); assay: Competitive MHC class II binding assay, DQA10301-DQB10302
DRB3_0101 = DRB3_0101 (Homo sapiens, UniProt P01903+P79483); assay: Competitive MHC class II binding assay, DRB3_0101
DQA10401-DQB10402 = assay: Competitive MHC class II binding assay, DQA10401-DQB10402
DQA10501-DQB10201 = DQA10501-DQB10201 (Homo sapiens, UniProt P01909+P01920, A45G/A70V/D89A/E106A/E77G/E98D/H199R/L107V/N214S/P84L/P87L/T103K/T109R/T172A/T60S/V78E/V99I/Y58L/Y62S/Y69I/Y79F); assay: Competitive MHC class II binding assay, DQA10501-DQB10201
DRB1_0405 = DRB1_0405 (Homo sapiens, UniProt P01903+P01911, A100R/A169T/D86S/F76Y/I96L/K127E/L162R/M171V/N62H/P40V/Q125Y/R42H/S133A/S149N/S66Y/V115G/V209L/W38E); assay: Competitive MHC class II binding assay, DRB1_0405
DQA10101-DQB10501 = DQA10101-DQB10501 (Homo sapiens, UniProt P01909+P01920, A157S/A45G/A70V/C70R/D89V/E106S/E118A/E183D/E77G/F83G/G63E/H151Q/H199R/H252R/H253Q/I129T/I235V/I88M/INS77G/K197Q/L107V/L117V/L119Y/L178F/L71W/L74F/L85Q/L91A/L98M/M46L/N214S/P87R/Q116E/Q256R/Q57E/Q76K/R102G/R240Q/R75S/R78G/S102Y/S185I/S41F/S97I/T103A/T109R/T121G/T122I/T172A/T86R/V148I/V68A/V73E/Y34C/Y58G/Y62H); assay: Competitive MHC class II binding assay, DQA10101-DQB10501; conditions: positive binding at cutoff 1000 nM; read-out: HLA-DQA10101-DQB10501

Row | Sequence | IC50 (DRB1_1501) | IC50 (DRB1_0101) | IC50 (DPA10103-DPB10402) | IC50 (DRB3_0202) | IC50 (DRB1_1302) | IC50 (DRB1_0701) | IC50 (DPA10202-DPB10501) | IC50 (DRB1_0401) | IC50 (DQA10501-DQB10301) | IC50 (DRB5_0101) | IC50 (DRB1_0802) | IC50 (DRB1_0901) | IC50 (DRB4_0101) | IC50 (DQA10301-DQB10302) | IC50 (DRB3_0101) | also measured
1 | NYSQIYPPNVNKIREA [HDM101A, reference compound] | < 1000 nM | < 1000 nM | < 1000 nM | < 1000 nM | < 1000 nM | < 1000 nM |  |  |  |  |  |  |  |  |  | 
2 | VMGDDGVLASAIATHAKIRD [pep-099] |  | < 1000 nM |  |  | < 1000 nM |  | < 1000 nM | < 1000 nM | < 1000 nM | < 1000 nM | < 1000 nM | < 1000 nM |  |  |  | IC50 (DQA10102-DQB10602): < 1000 nM
3 | GVLASAIATHAKIR [HDM26B, reference compound] | < 1000 nM | < 1000 nM |  | < 1000 nM | < 1000 nM | < 1000 nM | < 1000 nM | < 1000 nM | < 1000 nM | < 1000 nM | < 1000 nM | < 1000 nM | < 1000 nM |  |  | 
4 | VMGDNGVLASAIATHAKIRD [pep-125] |  | < 1000 nM |  |  |  |  | < 1000 nM |  | < 1000 nM | < 1000 nM | < 1000 nM | < 1000 nM |  | < 1000 nM |  | 
5 | VLASAIATHAKIRD [pep-012] |  | < 1000 nM |  |  |  | < 1000 nM | < 1000 nM |  | < 1000 nM | < 1000 nM |  | < 1000 nM |  |  | < 1000 nM | 
6 | NGYGYFAANIDLMM [pep-011] |  | < 1000 nM | < 1000 nM | < 1000 nM | < 1000 nM | < 1000 nM |  | < 1000 nM | < 1000 nM |  |  | < 1000 nM | < 1000 nM | < 1000 nM | < 1000 nM | binding to HLA Class II allele DQA10401-DQB10402 (DQA10401-DQB10402; as shown in Table 16a): binds to at least the same alleles as peptide 041; IC50 (DQA10401-DQB10402; read-out: HLA-DQA10401-DQB10402, positive binding at cutoff 1000 nM): < 1000 nM; IC50 (DQA10501-DQB10201): < 1000 nM; binding to HLA Class II allele DQA10501-DQB10201 (DQA10501-DQB10201; as shown in Table 16a): binds to at least the same alleles as peptide 041; IC50 (DRB1_0405): < 1000 nM; IC50 (DQA10101-DQB10501): < 1000 nM; binding to HLA Class II allele DRB3_0202 (DRB3_0202; as shown in Table 16a): binds to at least the same alleles as peptide 041; binding to HLA Class II allele DRB1_1302 (DRB1_1302; as shown in Table 16a): binds to at least the same alleles as peptide 041; binding to HLA Class II allele DRB3_0101 (DRB3_0101; as shown in Table 16a): binds to at least the same alleles as peptide 041
